# Results as given in patent US20190134005A1 (BioMarin Pharmaceutical Inc., priority 2016, published 2019).
# pIC50: −log10 of the molar value.
# Target: T1, human CGT (Homo sapiens, UniProt Q16880)
# T1 sequence (Q16880 21-541): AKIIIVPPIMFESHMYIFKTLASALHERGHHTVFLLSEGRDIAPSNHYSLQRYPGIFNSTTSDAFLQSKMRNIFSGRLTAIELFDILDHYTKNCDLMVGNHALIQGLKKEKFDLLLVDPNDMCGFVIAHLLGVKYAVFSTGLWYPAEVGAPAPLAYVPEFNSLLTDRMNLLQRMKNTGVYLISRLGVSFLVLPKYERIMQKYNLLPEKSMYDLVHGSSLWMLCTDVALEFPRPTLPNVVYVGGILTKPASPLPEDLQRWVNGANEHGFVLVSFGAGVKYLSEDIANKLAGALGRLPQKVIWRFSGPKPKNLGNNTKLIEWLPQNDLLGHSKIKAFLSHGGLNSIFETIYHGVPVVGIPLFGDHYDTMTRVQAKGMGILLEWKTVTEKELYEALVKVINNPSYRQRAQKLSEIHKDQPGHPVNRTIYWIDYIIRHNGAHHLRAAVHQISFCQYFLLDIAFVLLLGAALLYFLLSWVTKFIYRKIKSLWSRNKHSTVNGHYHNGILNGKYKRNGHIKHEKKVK
# Test: Assay 1: CGT Enzymatic Assay (RapidFire/MS/MS, 0.01% Tween 80)
# Type: biochemical
# Details: Table 1, Compounds of Formula (I) and Formula (II); CGT enzymatic assay; read-out: IC50
row,SMILES,pIC50
1,"O=C1N(c2ccc(Br)cc2)C(=O)C(O)(c2ccc(OC3CCCCC3)cc2)N1c1ccc(Br)cc1 (stereo not shown) [Example 169, 1,3-bis(4-bromophenyl)-5-(4-(cyclohexyloxy)phenyl)-5-hydroxyimidazolidine-2,4-dione]",< 4.30
2,"CCCC1(C)N(c2ccc(Cl)cc2)C(=O)N(c2ccc(Cl)cc2)C1(O)c1cccc(OC(F)(F)F)c1 (stereo not shown) [Example 170, 1,3-bis(4-chlorophenyl)-4-hydroxy-5-methyl-5-propyl-4-(3-(trifluoromethoxy)phenyl)imidazolidin-2-one]",> 6.00
3,"O=C1N(c2ccc(Br)cc2)C(=O)C(O)(c2ccc(OC3CC3)c(Cl)c2)N1c1ccc(Br)cc1 (stereo not shown) [Example 171, 1,3-bis(4-bromophenyl)-5-(3-chloro-4-cyclopropoxyphenyl)-5-hydroxyimidazolidine-2,4-dione]",4.00 to 4.30
4,"O=C1N(c2ccc(Br)cc2)C(=O)C(O)(c2ccc(F)cc2)N1c1ccc(Br)cc1 (stereo not shown) [Example 172, 1,3-bis(4-bromophenyl)-5-(4-fluorophenyl)-5-hydroxyimidazolidine-2,4-dione]",4.30 to 5.00
5,"O=C1N(c2ccc(Br)cc2)C(=O)C(O)(c2ccc(N3CCCCC3)cc2)N1c1ccc(Br)cc1 (stereo not shown) [Example 173, 1,3-bis(4-bromophenyl)-5-hydroxy-5-(4-(piperidin-1-yl)phenyl)imidazolidine-2,4-dione]",< 4.30
6,"O=C1N(c2ccc(Br)cc2)C(=O)C(O)(c2ccc(OC3CCC3)cc2)N1c1ccc(Br)cc1 (stereo not shown) [Example 174, 1,3-bis(4-bromophenyl)-5-(4-cyclobutoxyphenyl)-5-hydroxyimidazolidine-2,4-dione]",< 4.30
7,"Cc1ccc(N2C(=O)N(c3ccc(C)cc3)C(O)(c3cccc(OC(F)(F)F)c3)C2(C)C)cc1 (stereo not shown) [Example 176, 4-hydroxy-5,5-dimethyl-1,3-di-p-tolyl-4-(3-(trifluoromethoxy)phenyl)-imidazolidin-2-one]",> 6.00
8,"CC1(C(F)(F)F)N(c2ccc(Cl)cc2)C(=O)N(c2ccc(Cl)cc2)C1(O)c1cccc(C#N)c1 (stereo not shown) [Example 177, 3-(1,3-bis(4-chlorophenyl)-4-hydroxy-5-methyl-2-oxo-5-(trifluoromethyl)imidazolidin-4-yl)benzonitrile]",> 6.00
9,"O=C1N(c2ccc(Br)cc2)C(=O)C(O)(c2ccc(-c3ccc(F)cc3)cc2)N1c1ccc(Br)cc1 (stereo not shown) [Example 178, 1,3-bis(4-bromophenyl)-5-(4′-fluoro-[1,1′-biphenyl]-4-yl)-5-hydroxyimidazolidine-2,4-dione]",< 4.30
10,"COc1cccc(C2(O)C(=O)N(c3ccc(Br)cc3)C(=O)N2c2ccc(Br)cc2)c1 (stereo not shown) [Example 179, 1,3-bis(4-bromophenyl)-5-hydroxy-5-(3-methoxyphenyl)imidazolidine-2,4-dione]",4.30 to 5.00
11,"CC1N(c2ccc(C#N)cc2)C(=O)N(c2ccc(C#N)cc2)C1(O)c1cccc(OC(F)(F)F)c1 (stereo not shown) [Example 180, 4,4′-(4-hydroxy-5-methyl-2-oxo-4-(3-(trifluoromethoxy)phenyl)imidazolidine-1,3-diyl)dibenzonitrile]",5.00 to 6.00
12,"C[C@@H]1N(c2ccc(C#N)cc2)C(=O)N(c2ccc(C#N)cc2)C1(O)c1cccc(OC(F)(F)F)c1 (stereo partly drawn) [Example 180-1, 4,4′-((5S)-4-hydroxy-5-methyl-2-oxo-4-(3-(trifluoromethoxy)phenyl)imidazolidine-1,3-diyl)dibenzonitrile]",> 6.00
13,"C[C@H]1N(c2ccc(C#N)cc2)C(=O)N(c2ccc(C#N)cc2)C1(O)c1cccc(OC(F)(F)F)c1 (stereo partly drawn) [Example 180-2, 4,4′-((5R)-4-hydroxy-5-methyl-2-oxo-4-(3-(trifluoromethoxy)phenyl)imidazolidine-1,3-diyl)dibenzonitrile]",> 6.00
14,"O=C1N(c2cccc(Br)c2)C(=O)C(O)(c2ccccc2)N1c1cccc(Br)c1 (stereo not shown) [Example 181, 1,3-bis(3-bromophenyl)-5-hydroxy-5-phenylimidazolidine-2,4-dione]",4.00 to 4.30
15,"CCCCOc1ccc(C2(O)C(=O)N(c3ccc(Br)cc3)C(=O)N2c2ccc(Br)cc2)cc1 (stereo not shown) [Example 182, 1,3-bis(4-bromophenyl)-5-(4-butoxyphenyl)-5-hydroxyimidazolidine-2,4-dione]",< 4.30
16,"O=C1N(c2ccc(Br)cc2)C(=O)C(O)(c2ccc(OCC3CCCC3)cc2)N1c1ccc(Br)cc1 (stereo not shown) [Example 183, 1,3-bis(4-bromophenyl)-5-(4-(cyclopentylmethoxy)phenyl)-5-hydroxyimidazolidine-2,4-dione]",< 4.30
17,"O=C1N(c2ccc(Br)cc2)C(=O)C(O)(c2ccc(OCC3CC3)cc2)N1c1ccc(Br)cc1 (stereo not shown) [Example 184, 1,3-bis(4-bromophenyl)-5-(4-(cyclopropylmethoxy)phenyl)-5-hydroxyimidazolidine-2,4-dione]",< 4.30

row,SMILES,pIC50
1,"CC1(C)N(c2ccc(Cl)cc2)C(=O)N(c2ccc(Cl)cc2)C1(O)c1cncc(C#N)c1 (stereo not shown) [Example 186, 5-(1,3-bis(4-chlorophenyl)-4-hydroxy-5,5-dimethyl-2-oxoimidazolidin-4-yl)nicotinonitrile]",> 6.00
2,"N#Cc1cccc(C2(O)[C@H](C3CC3)N(c3ccc(Cl)cc3)C(=O)N2c2ccc(Cl)cc2)c1 (stereo partly drawn) [Example 187-1, 3-((5S)-1,3-bis(4-chlorophenyl)-5-cyclopropyl-4-hydroxy-2-oxoimidazolidin-4-yl)benzonitrile]",> 6.00
3,"N#Cc1cccc(C2(O)[C@@H](C3CC3)N(c3ccc(Cl)cc3)C(=O)N2c2ccc(Cl)cc2)c1 (stereo partly drawn) [Example 187-2, 3-((5R)-1,3-bis(4-chlorophenyl)-5-cyclopropyl-4-hydroxy-2-oxoimidazolidin-4-yl)benzonitrile]",> 6.00
4,"CC1(C)N(c2ccc(Cl)cc2)C(=O)N(c2ccc(Cl)cc2)C1(O)c1cc(C#N)cc(C#N)c1 (stereo not shown) [Example 188, 5-(1,3-bis(4-chlorophenyl)-4-hydroxy-5,5-dimethyl-2-oxoimidazolidin-4-yl)isophthalonitrile]",> 6.00
5,"CC1(C)N(c2ccc(Cl)cc2)C(=O)N(c2ccc(Cl)cc2)C1(O)c1cccnc1 (stereo not shown) [Example 189, 1,3-bis(4-chlorophenyl)-4-hydroxy-5,5-dimethyl-4-(pyridin-3-yl)imidazolidin-2-one]",> 6.00
6,"CC1(c2cccc(C(F)(F)F)c2)C(O)N(c2ccc(Cl)cc2)C(=O)N1c1ccc(Cl)cc1 (stereo not shown) [Example 190, 1,3-bis(4-chlorophenyl)-5-hydroxy-4-methyl-4-(3-(trifluoromethyl)phenyl)imidazolidin-2-one]",> 6.00
7,"C[C@]1(c2cccc(C(F)(F)F)c2)C(O)N(c2ccc(Cl)cc2)C(=O)N1c1ccc(Cl)cc1 (stereo partly drawn) [Example 190-1, (4S)-1,3-bis(4-chlorophenyl)-5-hydroxy-4-methyl-4-(3-(trifluoromethyl)phenyl)imidazolidin-2-one]",< 4.30
8,"C[C@@]1(c2cccc(C(F)(F)F)c2)C(O)N(c2ccc(Cl)cc2)C(=O)N1c1ccc(Cl)cc1 (stereo partly drawn) [Example 190-2, (4R)-1,3-bis(4-chlorophenyl)-5-hydroxy-4-methyl-4-(3-(trifluoromethyl)phenyl)imidazolidin-2-one]",> 6.00
9,"O=C1N(c2ccc(Cl)cc2)C(C2CCC2)C(O)(c2cccc(OC(F)(F)F)c2)N1c1ccc(Cl)cc1 (stereo not shown) [Example 191, 1,3-bis(4-chlorophenyl)-5-cyclobutyl-4-hydroxy-4-(3-(trifluoromethoxy)phenyl)imidazolidin-2-one]",> 6.00
10,"O=C1N(c2ccc(Cl)cc2)[C@@H](C2CCC2)C(O)(c2cccc(OC(F)(F)F)c2)N1c1ccc(Cl)cc1 (stereo partly drawn) [Example 191-1, (5S)-1,3-bis(4-chlorophenyl)-5-cyclobutyl-4-hydroxy-4-(3-(trifluoromethoxy)phenyl)imidazolidin-2-one]",> 6.00
11,"O=C1N(c2ccc(Cl)cc2)[C@H](C2CCC2)C(O)(c2cccc(OC(F)(F)F)c2)N1c1ccc(Cl)cc1 (stereo partly drawn) [Example 191-2, (5R)-1,3-bis(4-chlorophenyl)-5-cyclobutyl-4-hydroxy-4-(3-(trifluoromethoxy)phenyl)imidazolidin-2-one]",> 6.00
12,"CC1(C)N(c2ccc(C(F)(F)F)cc2)C(=O)N(c2ccc(C(F)(F)F)cc2)C1(O)c1cccc(C#N)c1 (stereo not shown) [Example 192, 3-(4-hydroxy-5,5-dimethyl-2-oxo-1,3-bis(4-(trifluoromethyl)phenyl)-imidazolidin-4-yl)benzonitrile]",> 6.00
13,"CC1(O)C(=O)N(c2ccc(Br)cc2)C(=O)N1c1ccc(Br)cc1 (stereo not shown) [Example 193, 1,3-bis(4-bromophenyl)-5-hydroxy-5-methylimidazolidine-2,4-dione]",4.00 to 4.30
14,"N#Cc1cccc(C2(O)C(C3CCC3)N(c3ccc(Cl)cc3)C(=O)N2c2ccc(Cl)cc2)c1 (stereo not shown) [Example 194, 3-(1,3-bis(4-chlorophenyl)-5-cyclobutyl-4-hydroxy-2-oxoimidazolidin-4-yl)benzonitrile]",> 6.00
15,"N#Cc1cccc(C2(O)[C@H](C3CCC3)N(c3ccc(Cl)cc3)C(=O)N2c2ccc(Cl)cc2)c1 (stereo partly drawn) [Example 194-1, 3-((5S)-1,3-bis(4-chlorophenyl)-5-cyclobutyl-4-hydroxy-2-oxoimidazolidin-4-yl)benzonitrile]",> 6.00
16,"N#Cc1cccc(C2(O)[C@@H](C3CCC3)N(c3ccc(Cl)cc3)C(=O)N2c2ccc(Cl)cc2)c1 (stereo partly drawn) [Example 194-2, 3-((5R)-1,3-bis(4-chlorophenyl)-5-cyclobutyl-4-hydroxy-2-oxoimidazolidin-4-yl)benzonitrile]",> 6.00
17,"O=C1N(c2ccc(Br)cc2)C(=O)C(O)(c2cccc3ccccc23)N1c1ccc(Br)cc1 (stereo not shown) [Example 195, 1,3-bis(4-bromophenyl)-5-hydroxy-5-(naphthalen-1-yl)imidazolidine-2,4-dione]",< 4.30
